Results reported in patent US7173015B2, “Inhibition of Syk kinase expression” (The Trustees of the University of Pennsylvania, priority 2003, dated 2007).
“Also recorded” adds a separate entry of the source.

Legend:
HS-24 cells = assay: Viability of HS-24 cells by trypan blue dye exclusion; type: cell-based; details: no significant effect on viability
[1] = test system: ICAM-1 (CD54) expression in HS-24 cells; assay: Cell surface expression of ICAM-1 in HS-24 cells (flow cytometry); type: cell-based; details: for TNF-induced ICAM-1 expression: siRNA 48 h, TNF 10 ng/ml overnight
Procedure: (§1) FIGS. 6A and 6B. HS-24 cells plated on either polylysine coated plates (non stimulated, resting) or fibronectin coated plates (stimulated) were treated with siRNA-2, or siRNA-1 (control), or piceatannol. Cells were treated with 10 ng/ml of TNF during overnight culture. (FIG. 6A) Following siRNA (48 h) or piceatannol (16 h) treatment, cells were removed, immunostained with anti-CD54 (ICAM-1) and analysed by flow cytometry. (FIG. 6B) Cell culture supernatants were analysed for IL-6 release using an IL-6 ELISA kit. *P<0.05, **P<0.005 as compared to untreated cells (e.g., untreated with siRNA) stimulated with TNF. Results are representative of three to five independent experiments.
(§2) or Syk antisense, with Lipofectamine 2000 in a 12-well plate for 24 or 48 hr, and stimulated by 10 ng/ml of TNF overnight. Read-outs: IL-6 in culture supernatant (ELISA) and cell surface expression of ICAM-1 (Flow cytometry). As shown by Western blot analysis ([…]), siRNA-2 caused a decrease in Syk protein expression following 48 hr of treatment.

Syk mRNA = assay: RT-PCR of Syk mRNA in HS-24 cells after siRNA treatment; type: cell-based; details: 48 h treatment
Procedure: (§3) FIGS. 5A and 5B. (FIG. 5A) HS-24 cells, following siRNA treatment, were lysed and equal amounts of total protein in HS-24 cell lysates were resolved by 10% SDS gel electrophoresis, and analyzed by Western blot using monoclonal antibody to Syk or actin. Lane 1—no treatment, lane 2—siRNA-1 (control) 24 h treatment, lane 3—siRNA-1 48 h treatment, lane 4—siRNA-2 24 h treatment, lane 5—siRNA-2 48 h treatment. (FIG. 5B) RNA was isolated and RT-PCR was performed for Syk and β-actin. Lane 1—no treatment, lane 2—SiRNA-1 (control) 48 h treatment, lane 3—siRNA-2 48 h treatment.
(§4) More specifically, HS-24 cells were transiently transfected with siRNA-2 or siRNA-1 (control). Cell surface expression of ICAM-1, as well as release of IL-6, were then examined.

[2] = test system: IL-6 release by HS-24 cells; assay: IL-6 release of HS-24 cells into culture supernatant (ELISA); type: cell-based
Procedure: as §1, §2

Syk = assay: Western blot of Syk protein expression in HS-24 cells after siRNA treatment; type: cell-based; details: 48 hr treatment
Procedure: as §3
HS-24 cells (2×10^5) were pre-treated with 3 μl of siRNA-1 (control)
as §2, §4

Syk kinase = assay: Western blot densitometry of Syk kinase protein in RBL-2H3 cells transfected with siRNA; type: cell-based, rat; details: for Syk (densitometry quantification of Syk kinase expression) / Syk Corr (Syk densitometry units corrected for % actin expression in each lane): 48 hours after transfection; for Syk (densitometry quantification of Syk kinase expression): Western blot; for Syk Corr (Syk densitometry units corrected for % actin expression in each lane): normalized to actin; for % Syk Inhibition: compared to transfection control
Procedure: Rat basophilic cells (RBL-2H3) were grown in EMEM supplemented with 17% FBS, 100 U penicillin, 100 μg/ml streptomycin, and 4 mM glutamine at 37° C. in 5% CO2.
SIRNA was introduced into RBL-2H3 cells and into monocytes by transfection. For the transfections, 5×10^4 RBL-2H3 cells or 1×10^5 monocytes were seeded into each well of a 24-well plate. Twenty-four hours later, the complete medium was replaced with 400 μl fresh medium lacking serum and antibiotic and siRNA/Lipofectamine 2000 complex was added to each well. For the RBL cells, the siRNA/Lipofectamine 2000 complex was formed by adding 3 μl of siRNA duplex (20 μM) and 3 μl of Lipofectamine 2000 to 100 μl Opti-mem without serum or antibiotic according to the manufacturer's protocol. For monocytes, the siRNA/Lipofectamine 2000 complex was formed by adding 3 μl of siRNA duplex (20 μM) and 1 μl of Lipofectamine 2000 to 100 μl Opti-mem without serum or antibiotic. Cells were incubated at 37° C. for 48 hours before examination of kinase protein expression by Western blotting
Lysates were prepared by boiling cells in Laemmli sample buffer (2% SDS, 10% glycerol, 100 mM DTT, and 60 mM Tris (pH 6.8) for 5 minutes. Proteins in lysates were separated by SDS-PAGE (10% polyacrylamide) and transferred to a nitrocellulose membrane in […] (25 mM Tris, 190 mM glycine, and 20% methanol). The nitrocellulose membrane was incubated overnight at 4° C. with 1 μg/ml rabbit anti-murine Syk kinsae polyclonal Ab before incubation with goat anti-rabbit HRP (1.5 h at room temperature). Protein bands on the membrane were visualized with chemiluminescence reagent according to the manufacturer's protocol. After detection of Syk kinase protein, the anti-Syk kinase Ab was removed by incubating the membrane in a stripping buffer containing 100 mM 2-ME, 2% SDS, and 62.5 mM Tris-HCL (pH 6.7) for 30 minutes at 50° C. with occasional agitation. The membrane was then reprobed with anti-actin Ab and bands on the membrane were visualized with chemiluminescence reagent. Protein levels of Syk kinase were quantified by densitometry (Personal Densitometer, Molecular Dynamics).

Row | Molecule | viability (trypan blue dye exclusion) (HS-24 cells) [%] | TNF-induced ICAM-1 expression (summary of FIG. 6A) ([1]; HS-24 cells) | constitutive ICAM-1 expression ([1]; HS-24 cells without TNF stimulation) | TNF-induced ICAM-1 expression ([1]; fibronectin-plated HS-24 cells) | TNF-induced ICAM-1 expression ([1]; poly-L-lysine-plated HS-24 cells) | Syk mRNA expression (Syk mRNA) | IL-6 release (summary of FIG. 6B) ([2]; HS-24 cells, TNF-induced) | down-regulation of IL-6 release ([2]; TNF-stimulated HS-24 cells, poly-L-lysine and fibronectin culture, significant in fibronectin-adherent culture (P<0.05)) | Syk protein expression (Syk) | Syk (densitometry quantification of Syk kinase expression) (Syk kinase) [densitometry units] | Syk Corr (Syk densitometry units corrected for % actin expression in each lane) (Syk kinase) [densitometry units] | % Syk Inhibition (Syk kinase) [%]
1 | Oc1cc(O)cc(/C=C/c2ccc(O)c(O)c2)c1 [piceatannol] | > 96 |  |  |  |  |  |  |  |  |  |  | 
2 | siRNA-2: Syk kinase siRNA duplex; sense 5′-ccucaucagggaauaucug UU 3′ (SEQ ID NO: 25), antisense 3′-UU ggaguagucccuuauagac 5′ (SEQ ID NO: 26) (sense CCUCAUCAGGGAAUAUCUGUU; antisense CAGAUAUUCCCUGAUGAGGTT; chemistry not fully specified) |  | down-regulates | not affected | down-regulated | no significant effect | significantly suppressed | down-regulates | 55–58% | decrease; also recorded: significantly suppressed | 627 | 997 | 51
3 | siRNA-1: Syk kinase siRNA duplex; sense 5′ gaagcccuucaaccggccc UU 3′ (SEQ ID NO: 23), antisense 3′-UU cuucgggaaguuggccggg 5′ (SEQ ID NO: 24) (sense GAAGCCCUUCAACCGGCCCUU; antisense GGGCCGGUUGAAGGGCUUCTT; chemistry not given here) |  |  |  |  |  | not |  |  | not | 953 | 1114 | 45
